Experimental data from patent US20060069132A1, “Azolecarboxamide herbicides” (priority 2004, published 2006).

Key:
rice [1] = assay: Test B pre-/postemergence herbicide test; assay type: in vivo, Oryza sativa; conditions: preemergence
Excerpt: Seeds selected from barnyardgrass (Echinochloa crus-galli (L.) Beauv.), Surinam grass (Urochloa decumbens (Staph) R. D. Webster, previously named Brachiaria decumbens Stapf), cocklebur (Xanthium strumarium L.), corn (Zea mays L.), large crabgrass (Digitaria sanguinalis (L.) Scop.), giant foxtail (Setaria faberi Herim.), lambsquarters (Chenopodium album L.), morningglory (Ipomoea coccinea L.), pigweed (Amaranthus retroflexus L.), rice (Oryza sativa L.) and velvetleaf (Abutilon theophrasti Medik.) were planted and treated preemergence with test chemicals formulated in a non-phytotoxic solvent mixture which included a surfactant.
At the same time, plants selected from these crop and weed species and also blackgrass (Alopecurus myosuroides Huds.), wheat (Triticum aestivum L.) and wild oat (Avena fatua L.) were treated with postemergence applications of test chemicals formulated in the same manner. Plants ranged in height from 2 to 18 cm (1- to 4-leaf stage) for postemergence treatments. Plant species in the flooded paddy test consisted of rice (Oryza sativa L.), small flower umbrella sedge (Cyperus difformis L.), ducksalad (Heteranthera limosa (Sw.) Willd.) and barnyardgrass (Echinochloa crus-galli (L.) Beauv.) grown to the 2-leaf stage for testing. Treated plants and controls were maintained in a greenhouse for 13 to 15 days, after which time all species were compared to controls and visually evaluated. Plant response ratings, summarized in Table B, are based on a scale of 0 to 100 where 0 is no effect and 100 is complete control. A dash (-) response means no test result.

lambsquarters = assay: Test B pre-/postemergence herbicide test; assay type: in vivo, Chenopodium album; conditions: for Lambsquarters plant response rating: postemergence, visual rating, scale 0 (no effect) to 100 (complete control)
Procedure, shortened: (§1)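 Pre: seeds sown, then sprayed. Post: 1–4-leaf plants (2–18 cm) sprayed at the same time. Paddy: flooded, treated at 2-leaf stage. Formulation: non-phytotoxic solvent with surfactant. Greenhouse 13–15 days; visual 0–100 score relative to controls.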

giant foxtail = assay: Test B pre-/postemergence herbicide test; assay type: in vivo, Setaria faberi; conditions: for Foxtail, Giant plant response rating: postemergence, visual rating, scale 0 (no effect) to 100 (complete control)
Procedure, shortened: as §1

barnyardgrass [2] = assay: Test B flooded paddy test; assay type: in vivo, Echinochloa crus-galli; conditions: 1000 g ai/ha, visual rating, scale 0 to 100 (0 no effect, 100 complete control), 13 to 15 days
Procedure, shortened: (§2)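 Each value is a visual 0–100 response rating taken against controls 13 to 15 days after treatment in the greenhouse. Plants received formulated chemical postemergence at the 1- to 4-leaf stage or, in flooded paddy, at the 2-leaf stage.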

large crabgrass = assay: Test B pre-/postemergence herbicide test; assay type: in vivo, Digitaria sanguinalis; conditions: for Crabgrass, Large plant response rating: postemergence, visual rating, scale 0 (no effect) to 100 (complete control)
Procedure, shortened: as §1

[3] = test system: small flower umbrella sedge; assay: Test B flooded paddy test; assay type: in vivo, Cyperus difformis; conditions: 1000 g ai/ha, visual rating, scale 0 to 100 (0 no effect, 100 complete control), 13 to 15 days
Procedure, shortened: as §2

cocklebur = assay: Test B pre-/postemergence herbicide test; assay type: in vivo, Xanthium strumarium; conditions: for Cocklebur plant response rating: postemergence, visual rating, scale 0 (no effect) to 100 (complete control)
Procedure, shortened: (§3)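 Evaluation is visual, comparing treated with control plants on a scale where 0 means no effect and 100 means full control. Treatments were preemergence, or postemergence on seedlings 2–18 cm tall, and held 13–15 days in the greenhouse.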

wild oat = assay: Test B postemergence herbicide test; assay type: in vivo, Avena fatua; conditions: postemergence, visual rating, scale 0 (no effect) to 100 (complete control)
Procedure, shortened: (§4)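 Scale 0–100: zero equals no visible effect, 100 complete control, judged by eye relative to controls. Timing: 13 to 15 days in greenhouse post-treatment. Growth stage at spraying: two leaves (paddy) or one to four leaves, 2–18 cm (postemergence).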

blackgrass = assay: Test B postemergence herbicide test; assay type: in vivo, Alopecurus myosuroides; conditions: postemergence, visual rating, scale 0 (no effect) to 100 (complete control)
Procedure, shortened: as §2

rice [4] = assay: Test B flooded paddy test; assay type: in vivo, Oryza sativa; conditions: 1000 g ai/ha, visual rating, scale 0 to 100 (0 no effect, 100 complete control), 13 to 15 days
Procedure, shortened: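 Plants grow to 1- to 4-leaf stage (2–18 cm) for postemergence spraying, or to 2-leaf stage for the paddy test. Formulated compound is applied. Greenhouse holding lasts 13–15 days. Response is scored visually relative to controls, 0 no effect to 100 complete control; a dash means no result.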

morningglory = assay: Test B pre-/postemergence herbicide test; assay type: in vivo, Ipomoea coccinea; conditions: for Morningglory plant response rating: postemergence, visual rating, scale 0 (no effect) to 100 (complete control)
Procedure, shortened: as §3

barnyardgrass [5] = assay: Test B pre-/postemergence herbicide test; assay type: in vivo, Echinochloa crus-galli; conditions: for Barnyardgrass plant response rating: postemergence, visual rating, scale 0 (no effect) to 100 (complete control)
Procedure, shortened: as §3

Surinam grass = assay: Test B pre-/postemergence herbicide test; assay type: in vivo, Urochloa decumbens; conditions: for Surinam Grass plant response rating: postemergence, visual rating, scale 0 (no effect) to 100 (complete control)
Procedure, shortened: as §1

ducksalad = assay: Test B flooded paddy test; assay type: in vivo, Heteranthera limosa; conditions: 1000 g ai/ha, visual rating, scale 0 to 100 (0 no effect, 100 complete control), 13 to 15 days
Procedure, shortened: as §2

wheat = assay: Test B postemergence herbicide test; assay type: in vivo, Triticum aestivum; parameters: key to Wheat plant response rating: 0 = no effect, 100 = complete control; conditions: postemergence, visual rating, scale 0 (no effect) to 100 (complete control)
Procedure, shortened: as §4

pigweed = assay: Test B pre-/postemergence herbicide test; assay type: in vivo, Amaranthus retroflexus; conditions: for Pigweed plant response rating: postemergence, visual rating, scale 0 (no effect) to 100 (complete control)
Procedure, shortened: as §1

velvetleaf = assay: Test B pre-/postemergence herbicide test; assay type: in vivo, Abutilon theophrasti; conditions: for Velvetleaf plant response rating: postemergence, visual rating, scale 0 (no effect) to 100 (complete control)
Procedure, shortened: as §1

corn = assay: Test B pre-/postemergence herbicide test; assay type: in vivo, Zea mays; conditions: for Corn plant response rating: postemergence, visual rating, scale 0 (no effect) to 100 (complete control)
Procedure, shortened: as §1

[6] = 500 g ai/ha, visual rating 0-100, 0 no effect, 100 complete control
[7] = 500 g ai/ha, visual rating 0-100, 0 no effect, 100 complete control, preemergence
[8] = preemergence, 125 g ai/ha, 0 to 100 scale, 0 is no effect, 100 is complete control
[9] = 125 g ai/ha, 0 = no effect, 100 = complete control, preemergence

C=CCN(C)C(=O)c1cccc(NC(=O)c2cc(C(C)(C)C)nn2CC)n1 [Compound 163]
Plant response rating, Rice (rice [1]; [6]): 80
Plant response rating, Rice (rice [1]; 125 g ai/ha, 0 to 100 scale, 0 is no effect, 100 is complete control): 80
Plant response rating, Lambsquarters (lambsquarters; [7]): 100
Lambsquarters plant response rating (lambsquarters; 125 g ai/ha): 50
Lambsquarters plant response rating (lambsquarters; 500 g ai/ha): 80
Plant response rating, Lambsquarters (lambsquarters; [8]): 80
Plant response rating, Foxtail, Giant (giant foxtail; [7]): 80
Foxtail, Giant plant response rating (giant foxtail; 125 g ai/ha): 0
Foxtail, Giant plant response rating (giant foxtail; 500 g ai/ha): 40
Plant response rating, Foxtail, Giant (giant foxtail; [8]): 20
Barnyardgrass plant response rating (barnyardgrass [2]): 70
Plant response rating, Crabgrass, Large (large crabgrass; [7]): 90
Crabgrass, Large plant response rating (large crabgrass; 125 g ai/ha): 20
Crabgrass, Large plant response rating (large crabgrass; 500 g ai/ha): 40
Plant response rating, Crabgrass, Large (large crabgrass; [8]): 60
Sedge, Umbrella plant response rating [3]: 70
Plant response rating, Cocklebur (cocklebur; [7]): 70
Cocklebur plant response rating (cocklebur; 125 g ai/ha): 10
Cocklebur plant response rating (cocklebur; 500 g ai/ha): 60
Plant response rating, Cocklebur (cocklebur; [8]): 70
Oat, Wild plant response rating (wild oat; 125 g ai/ha): 10
Oat, Wild plant response rating (wild oat; 500 g ai/ha): 30
Blackgrass plant response rating (blackgrass; 125 g ai/ha): 10
Blackgrass plant response rating (blackgrass; 500 g ai/ha): 50
Rice plant response rating (rice [4]): 60
Plant response rating, Morningglory (morningglory; [7]): 70
Morningglory plant response rating (morningglory; 125 g ai/ha): 0
Morningglory plant response rating (morningglory; 500 g ai/ha): 0
Plant response rating, Morningglory (morningglory; [8]): 60
Plant response rating, Barnyardgrass (barnyardgrass [5]; [7]): 90
Barnyardgrass plant response rating (barnyardgrass [5]; 125 g ai/ha): 0
Barnyardgrass plant response rating (barnyardgrass [5]; 500 g ai/ha): 0
Plant response rating, Barnyardgrass (barnyardgrass [5]; [8]): 60
Plant response rating, Surinam Grass (Surinam grass; [7]): 70
Surinam Grass plant response rating (Surinam grass; 125 g ai/ha): 0
Surinam Grass plant response rating (Surinam grass; 500 g ai/ha): 40
Plant response rating, Surinam Grass (Surinam grass; [8]): 50
Ducksalad plant response rating (ducksalad): 80
Wheat plant response rating (wheat; 500 g ai/ha): 10
Plant response rating, Pigweed (pigweed; [7]): 100
Pigweed plant response rating (pigweed; 125 g ai/ha): 60
Pigweed plant response rating (pigweed; 500 g ai/ha): 80
Plant response rating, Pigweed (pigweed; [8]): 90
Plant response rating, Velvetleaf (velvetleaf; [7]): 90
Velvetleaf plant response rating (velvetleaf; 125 g ai/ha): 40
Velvetleaf plant response rating (velvetleaf; 500 g ai/ha): 80
Plant response rating, Velvetleaf (velvetleaf; [8]): 70
Plant response rating, Corn (corn; [7]): 40
Corn plant response rating (corn; 125 g ai/ha): 0
Corn plant response rating (corn; 500 g ai/ha): 0
Plant response rating, Corn (corn; [8]): 0

CCN(CC)C(=O)c1cccc(NC(=O)c2cn(C(C)(C)C)nc2C)c1 [Compound 184]
Rice plant response rating (0 to 100 scale) (rice [1]; 125 g ai/ha, 0 = no effect, 100 = complete control): 0
Plant response rating, Rice (rice [1]; [6]): 0
Lambsquarters plant response rating (0 to 100 scale) (lambsquarters; [9]): 50
Plant response rating, Lambsquarters (lambsquarters; [7]): 80
Lambsquarters plant response rating (lambsquarters; 125 g ai/ha): 60
Lambsquarters plant response rating (lambsquarters; 500 g ai/ha): 70
Foxtail, Giant plant response rating (0 to 100 scale) (giant foxtail; [9]): 0
Plant response rating, Foxtail, Giant (giant foxtail; [7]): 70
Foxtail, Giant plant response rating (giant foxtail; 125 g ai/ha): 30
Foxtail, Giant plant response rating (giant foxtail; 500 g ai/ha): 40
Barnyardgrass plant response rating (barnyardgrass [2]): 0
Crabgrass, Large plant response rating (0 to 100 scale) (large crabgrass; [9]): 30
Plant response rating, Crabgrass, Large (large crabgrass; [7]): 100
Crabgrass, Large plant response rating (large crabgrass; 125 g ai/ha): 20
Crabgrass, Large plant response rating (large crabgrass; 500 g ai/ha): 30
Sedge, Umbrella plant response rating [3]: 30
Cocklebur plant response rating (0 to 100 scale) (cocklebur; [9]): 0
Plant response rating, Cocklebur (cocklebur; [7]): 0
Cocklebur plant response rating (cocklebur; 125 g ai/ha): 30
Cocklebur plant response rating (cocklebur; 500 g ai/ha): 60
Oat, Wild plant response rating (wild oat; 125 g ai/ha): 20
Oat, Wild plant response rating (wild oat; 500 g ai/ha): 30
Blackgrass plant response rating (blackgrass; 125 g ai/ha): 0
Blackgrass plant response rating (blackgrass; 500 g ai/ha): 0
Rice plant response rating (rice [4]): 0
Morningglory plant response rating (0 to 100 scale) (morningglory; [9]): 10
Plant response rating, Morningglory (morningglory; [7]): 50
Morningglory plant response rating (morningglory; 125 g ai/ha): 0
Morningglory plant response rating (morningglory; 500 g ai/ha): 60
Barnyardgrass plant response rating (0 to 100 scale) (barnyardgrass [5]; [9]): 0
Plant response rating, Barnyardgrass (barnyardgrass [5]; [7]): 60
Barnyardgrass plant response rating (barnyardgrass [5]; 125 g ai/ha): 0
Barnyardgrass plant response rating (barnyardgrass [5]; 500 g ai/ha): 0
Surinam Grass plant response rating (0 to 100 scale) (Surinam grass; [9]): 0
Plant response rating, Surinam Grass (Surinam grass; [7]): 30
Surinam Grass plant response rating (Surinam grass; 125 g ai/ha): 10
Surinam Grass plant response rating (Surinam grass; 500 g ai/ha): 20
Ducksalad plant response rating (ducksalad): 0
Wheat plant response rating (wheat; 125 g ai/ha): 0
Wheat plant response rating (wheat; 500 g ai/ha): 0
Pigweed plant response rating (0 to 100 scale) (pigweed; [9]): 100
Plant response rating, Pigweed (pigweed; [7]): 100
Pigweed plant response rating (pigweed; 125 g ai/ha): 20
Pigweed plant response rating (pigweed; 500 g ai/ha): 60
Velvetleaf plant response rating (0 to 100 scale) (velvetleaf; [9]): 10
Plant response rating, Velvetleaf (velvetleaf; [7]): 50
Velvetleaf plant response rating (velvetleaf; 125 g ai/ha): 30
Velvetleaf plant response rating (velvetleaf; 500 g ai/ha): 60
Corn plant response rating (0 to 100 scale) (corn; [9]): 0
Plant response rating, Corn (corn; [7]): 0
Corn plant response rating (corn; 125 g ai/ha): 20
Corn plant response rating (corn; 500 g ai/ha): 30
